# Legend:
# Assay in all cases: relative viability (nuclei count vs DMSO), 5 days (fraction); higher = more cells survive
# [1] = compound: COc1cc(N2CCC(N3CCN(C)CC3)CC2)ccc1Nc1ncc(Cl)c(Nc2ccccc2S(=O)(=O)C(C)C)n1 [NVP-TAE684] + NC(=O)Nc1cc(-c2cccc(F)c2)sc1C(=O)N[C@H]1CCCNC1 [AZD7762] (partner 0.2 µM)
# In short: (§1)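 Lung cancer cell lines were seeded in 1536-well plates and dosed by pin tool the next day, with either a single drug or a fixed anchor-drug dose combined with five library-drug doses (not always all listed) spaced in √10 steps. Five days later, one step fixed the cells and stained their nuclei (final 0.05% Triton X-100, 1% formaldehyde, 1 ug/ml Hoechst), and nuclei were counted on 4× images. Relative viability is the nuclei count in treated wells divided by the count in vehicle wells, and each value is the median of duplicate plates.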
# [2] = compound: COc1cc(N2CCC(N3CCN(C)CC3)CC2)ccc1Nc1ncc(Cl)c(Nc2ccccc2S(=O)(=O)C(C)C)n1 [NVP-TAE684] + CC(C)C[C@H](NC(=O)[C@H](Cc1ccccc1)NC(=O)c1cnccn1)B(O)O [Bortezomib] (partner 0.002 µM)
# In short: as §1
# [3] = compound: COc1cc2/c(=N/c3ccc(Br)cc3F)nc[nH]c2cc1OCC1CCN(C)CC1 [Vandetanib] + COc1cc2c(Oc3ccc(NC(=O)C4(C(=O)Nc5ccc(F)cc5)CC4)cc3F)ccnc2cc1OCCCN1CCOCC1 [Foretinib] (partner 0.25 µM)
# In short: as §1
# [4] = compound: COc1cc(N2CCC(N3CCN(C)CC3)CC2)ccc1Nc1ncc(Cl)c(Nc2ccccc2S(=O)(=O)C(C)C)n1 [NVP-TAE684] + O=C(CCCCCCC(=O)Nc1ccccc1)NO [Vorinostat] (partner 1 µM)
# In short: as §1
# [5] = compound: C1=CC=C2C(=C1)N=C(S2)C(C#N)C3=NC(=NC=C3)NCCC4=CN=CC=C4 + O=C(c1cc(Cc2n[nH]c(=O)c3ccccc23)ccc1F)N1CCN(C(=O)C2CC2)CC1 [Olaparib] (partner 8 µM)
# In short: as §1
Cell Line,relative viability ([1]; first compound 0.2 µM),relative viability ([1]; first compound 0.6325 µM),relative viability ([1]; first compound 2 µM),relative viability ([2]; first compound 0.2 µM),relative viability ([2]; first compound 0.6325 µM),relative viability ([2]; first compound 2 µM),relative viability ([3]; first compound 0.02 µM),relative viability ([3]; first compound 0.06325 µM),relative viability ([3]; first compound 0.2 µM),relative viability ([3]; first compound 0.6325 µM),relative viability ([3]; first compound 2 µM),relative viability ([4]; first compound 0.2 µM),relative viability ([4]; first compound 0.6325 µM),relative viability ([4]; first compound 2 µM),relative viability ([5]; first compound 0.005 µM),relative viability ([5]; first compound 0.01581 µM),relative viability ([5]; first compound 0.05 µM),relative viability ([5]; first compound 0.1581 µM),relative viability ([5]; first compound 0.5 µM)
LC-2-ad,0.808,0.818,0.427,1.13,0.9,0.605,1,0.854,0.939,0.801,0.656,0.725,0.665,0.251,0.699,0.701,0.762,0.729,0.673
LCLC-97TM1,0.283,0.2,0.194,0.711,0.216,0.194,1,0.904,0.997,0.942,0.868,0.548,0.589,0.157,0.289,0.362,0.354,0.592,0.362
NCI-H1915,0.699,0.742,0.595,1.09,1.03,1.05,1.08,1.11,1.11,1.08,1.06,0.579,0.547,0.459,–,0.266,0.249,0.283,0.292
EPLC-272H,0.175,0.175,0.208,1.23,–,0.66,0.592,–,0.708,0.708,0.474,0.644,0.283,0.2,–,0.803,0.733,0.825,0.517
A-427,0.69,0.528,0.366,1.1,–,0.78,1.03,1.05,1.1,0.977,1.05,0.908,0.848,0.738,0.699,0.694,0.698,0.856,0.718
NCI-H1755,0.434,0.427,0.328,–,0.949,0.838,0.9,0.884,0.9,0.956,0.868,0.768,0.744,0.635,0.914,0.994,0.881,1.06,0.943
NCI-H838,–,0.857,0.853,0.86,0.902,0.399,1.08,1.01,0.282,1.06,1.05,0.76,0.692,0.334,0.622,0.829,0.731,0.773,0.546
ABC-1,0.917,0.524,0.472,0.223,0.256,0.169,0.971,1.03,0.28,1,0.854,–,1.01,0.527,0.731,–,0.803,0.825,0.936
EKVX,0.634,0.677,0.375,0.98,0.926,0.587,0.821,0.695,0.795,0.794,1.17,0.677,0.699,0.373,1,0.865,0.797,0.689,0.673
